Test results reported in patent US9618502B2, “Muscle stem cell or myoblast, method for screening substances that participate in metabolic conversion using same, and pharmaceutical composition comprising substance obtained from said screening method” (TOKYO METROPOLITAN GERIATRIC HOSPITAL AND INSTITUTE OF …, priority 2013, dated 2017).

Columns and labels:
Assay type in all cases: cell-based, mouse
[1] = system: cells expressing the myosin-heavy chain IIb protein; experiment: Screening method of substances involved in a metabolic shift: myotube cells from immortalized muscle stem cells, mCherry fluorescence; conditions: for number of myotube cells that generate fluorescence of mCherry (cells expressing myosin-heavy chain IIb): compared to the negative control; for area of cells expressing the myosin-heavy chain IIb protein: two days treatment
Description: (§1) In this Example, 27 test compounds were tested by the screening method of substances involved in a metabolic shift using the immortalized muscle stem cells (satellite cells) prepared in Example 2.
(§2) The immortalized muscle stem cells (1×10^5) were seeded on a 60 mm dish or the immortalized muscle stem cells (2×10^3) were seeded on a 96 well plate. The cells were cultured in a DMEM containing 20% FBS, bFGF (10 ng/mL), and IFNy (10 ng/mL) at 33° C. for 1 day, and then, cultured in a DMEM containing 5% HS at 37° C. for 3 days. Subsequently, test substances were serially diluted by a DMEM containing 5% horse serum at an appropriate dilution rate, and the diluted substances were added to the dishes respectively. After two days treatment, fluorescences of YFP, Sirius, mCherry, and mCerulean in the living cells were observed using a fluorescence microscope, and the number of cells, which generate the respective fluorescence, was measured.
(§3) In this example, additional test compounds were tested using the immortalized muscle stem cells (satellite cells) prepared in Example 2. The screening method of substances involved in a metabolic shift was performed by repeating a procedure of Example 3.

[2] = system: cells expressing the myosin-heavy chain I protein; experiment: Screening method of substances involved in a metabolic shift: myotube cells from immortalized muscle stem cells, YFP fluorescence; conditions: for area of cells expressing the myosin-heavy chain I protein: two days treatment; for number of myotube cells that generate fluorescence of YFP (myosin-heavy chain I): compared to the negative control
Description: as §1, §2, §3

[3] = system: immortalized muscle stem cells (satellite cells); experiment: Proliferation inhibition screening method using satellite cells; conditions: 5 nM, five days of culturing, versus control without rapamycin
Description: The rapamycin was obtained by the metabolic shift screening method in Example 3. In this Example, whether or not the rapamycin can be screened by the proliferation inhibition screening method using satellite cells was examined.
The immortalized muscle stem cells (1×10^4) were seeded on a 35 mm dish. The cells were cultured in a DMEM containing 20% FBS, bFGF (lOng/mL), and IFNγ (10 ng/mL) at 33° C. for 1 day, and then the rapamycin was diluted to a concentration of 5 nM by a DMEM containing 5% FBS, and the diluted rapamycin was added to the dish. The number of cells was counted after five days of culturing. […] The term “Control” means negative control in which the rapamycin was not added. The proliferation of satellite cells was inhibited by adding rapamycin.

Molecule | number of myotube cells that generate fluorescence of mCherry (cells expressing myosin-heavy chain IIb) [1] | area of cells expressing the myosin-heavy chain I protein ([2]; 1 nM, negative control 28.4%) [%] | area of cells expressing the myosin-heavy chain I protein ([2]; 10 nM, negative control 28.4%) [%] | area of cells expressing the myosin-heavy chain I protein ([2]; 100 nM, negative control 28.4%) [%] | number of myotube cells that generate fluorescence of YFP (myosin-heavy chain I) [2] | area of cells expressing the myosin-heavy chain IIb protein ([1]; 4 nM, negative control 41.8%) [%] | area of cells expressing the myosin-heavy chain I protein ([2]; 4 nM, negative control 25.3%) [%] | proliferation of satellite cells (number of cells) [3] | area of cells expressing the myosin-heavy chain IIb protein ([1]; 500 ng/mL, negative control 36.2%) [%] | area of cells expressing the myosin-heavy chain I protein ([2]; 100 ng/mL, negative control 19.5%) [%] | area of cells expressing the myosin-heavy chain I protein ([2]; 500 ng/mL, negative control 19.5%) [%] | area of cells expressing the myosin-heavy chain IIb protein ([1]; 100 nM, negative control 44.5%) [%] | area of cells expressing the myosin-heavy chain IIb protein ([1]; 500 nM, negative control 44.5%) [%]
C[C@H](Cc1ccc2c(c1)OC(C(=O)[O-])(C(=O)[O-])O2)NC[C@H](O)c1cccc(Cl)c1.[Na+].[Na+] [CL316243] | remains static | 49.3 | 53.8 | 57.8 | increased | – | – | – | – | – | – | – | –
CO[C@H]1C[C@@H]2CC[C@@H](C)[C@@](O)(O2)C(=O)C(=O)N2CCCC[C@H]2C(=O)O[C@H]([C@H](C)C[C@@H]2CC[C@@H](O)[C@H](OC)C2)CC(=O)[C@H](C)/C=C(\C)[C@@H](O)[C@@H](OC)C(=O)[C@H](C)C[C@H](C)/C=C/C=C/C=C/1C [rapamycin] | decreased | – | – | – | increased | 8.4 | 60.9 | inhibited | – | – | – | – | –
IL-15: IL-15, one of the test substances | increased | – | – | – | increased | – | – | – | 53.0 | 35.0 | 36.1 | – | –
N[C@@H](Cc1cc(I)c(Oc2ccc(O)c(I)c2)c(I)c1)C(=O)O [T3, triiodothyronine] | increased | – | – | – | – | – | – | – | – | – | – | 71.3 | 70.0
mouse fibroblast growth factor 21: protein consisting of the amino acid sequence of SEQ ID NO: 1, mouse fibroblast growth factor 21 (protein, listed as Mus musculus) MEWMRSRVGTLGLWVRLLLAVFLLGVYQAYPIPDSSPLLQFGGQVRQRYLYTDDDQDTEAHLEIREDGTVVGAAHRSPESLLELKALKPGVIQILGVKASRFLCQQPDGALYGSPHFDPEACSFRELLLEDGYNVYQSEAHGLPLRLPQKDSPNQDATSWGPVRFLPMPGLLHEPQDQAGFLPPEPPDVGSSDPLSMVEPLQGRSPSYAS | remains static | 40.6 | 48.0 | 54.9 | increased | – | – | – | – | – | – | – | –
